Laboratory results taken from patent US9944991B2, “Compositions and methods for diagnosis, prognosis and treatment of hematological malignancies” (Dana-Farber Cancer Institute, Inc., priority 2012, dated 2018).
“Also recorded” adds a separate entry of the source.

Assays:
NF-κB p65 = NF-κB p65 DNA-binding activity (Active Motif TransAM) in nuclear extracts; assay type: cell-based, human; conditions: BCWM.1 and MWCL.1; everolimus 1 nM or bortezomib 5 nM, 4 hours; TNF-α 10 ng/mL
Description: NF-κB activity was investigated using the Active Motif TransAM kits, a DNA-binding enzyme-linked immunosorbent assay (ELISA)-based assay (Active Motif North America, Carlsbad, Calif.).

BCWM1 cells [1] = assay: [H]3 thymidine uptake cell proliferation assay; assay type: cell-based, human; conditions: 20 μM, 48 hours, vs scramble control
Description: (§1) To assess the uptake of antimiR-155 into BCWM1 or MEC1 cells, a 5′ FAM-labeled antimiR-155 was used and the antimiR was added directly to the cell suspension without any transfection reagent. The uptake of FAM-labeled antimiR-155 into BCWM1 cells was higher than 90% as judged by flow cytometry (data not shown), which indicates efficient delivery of the 8-mer antimiR into tumor cells. To further examine the functional effect of antimiR-155 on BCWM1 or MEC1, cell survival and cell proliferation was measured by MTT and [H]^3 thymidine uptake assays, respectively. […] Thus, miR-155 inhibition regulates cell proliferation, but not cell apoptosis.

MEC1 cells [2] = assay: [H]3 thymidine uptake cell proliferation assay; assay type: cell-based, human; conditions: 20 μM, 48 hours, vs scramble control
Description: as §1

miR-155 [3] = assay: miR-155 target de-repression in xenograft mice (qRT-PCR of bone marrow CD19+ cells, immunostaining); assay type: in vivo, SCID mice
Description: (§2) Immediately after tail vein injection of mCherry-Luc+-BCWM1 cells (3×10^6/mouse) in SCID mice, the mice (6 mice/group) were treated with a single intravenous tail vein injection of 25 mg/kg with either antimiR-155 or LNA scramble control, followed by weekly maintenance doses of 5 mg/kg antimiR-155 or LNA scramble control until the mice were sacrificed. Mice were injected with 75 mg/kg luciferin (Caliper Life Sciences, Hopkinton, Mass.), followed by whole-body real-time bioluminescence imaging (Xenogen IVIS imaging system, Caliper Life Sciences, Hopkinton, Mass.) performed at Day 0, Day 14, and Day 19. Mice were sacrificed by inhalation of CO2. RNA was extracted from CD19+ cells isolated from one mouse femur by using CD19+ microbead selection. The other femur, liver, and spleen were fixed in formaldehyde.
Moreover, immunostaining confirmed de-repression of the MAFB and CEBPβ targets at the protein level in the bone marrow and spleen upon treatment with the antimiR-155 (FIG. 7D).

BCWM1 cells [4] = assay: Co-culture with primary WM bone marrow stromal cells, proliferation; assay type: cell-based, human; conditions: 20 μM, 48 hours
Description: (§3) To examine the effect of antimiR-155 on tumor progression in the context of the microenvironment, the miR-155 levels were first quantified in bone marrow stromal cells (mesenchymal stem cells) from WM patients in comparison to normal healthy donors. […] Consequently, 20 μM antimiR-155 or scramble control was added to a co-culture of BCWM1 and primary WM bone marrow stromal cells or MEC1 cells and primary WM bone marrow stromal cells, and then assessed for cell proliferation by MTT and [H]^3 thymidine uptake assays, respectively, after 48-hours. […] No effect on cell cytotoxicity on stromal cells was observed.

MEC1 cells [5] = assay: as above; assay type: cell-based, human; conditions: 20 μM, 48 hours
Description: as §3

BCWM1 cells [6] = assay: MTT cell survival / cytotoxicity assay; assay type: cell-based, human; conditions: 20 μM, 48 hours, vs scramble control
Description: as §1

MEC1 cells [7] = assay: MTT cell survival / cytotoxicity assay; assay type: cell-based, human; conditions: 20 μM, 48 hours, vs scramble control
Description: as §1

[8] = system: primary WM bone marrow stromal cells; assay: Cytotoxicity on stromal cells in co-culture; assay type: cell-based, human; conditions: 20 μM, 48 hours
Description: as §3

miR-155 [9] = assay: qRT-PCR of miR-155 target genes in primary CLL cells; assay type: cell-based, human; conditions: 20 μM, 48 hours, vs scramble control
Description: (§4) Total RNA of cells was isolated with the RNeasy kit (Qiagen). cDNA was synthesized using the SuperScript cDNA synthesis kit (Invitrogen) and qRT-PCR reactions were performed using SYBR master mix (SA Bioscience) with designated primers relative to 18S expression by StepOnePlus™ Real-Time PCR System (Applied Biosystem) in triplicates. TaqMan® microRNA Assays kits (Applied Biosystem) were used for quantifying hsa-miR-155 levels relative to RNU6B expression.
(§5) The mRNA levels of the six miR-155 target genes, SMAD5, SOCS1, CEBPβ, MAFB, SHANK2 and SH3PXD2A, […] were next determined by qRT-PCR from primary WM CD19^+ cells, and primary CLL cells, normal donor blood CD19^+ cells, BCWM1 and MEC1 cells.

miR-155 [10] = assay: qRT-PCR of miR-155 target genes in primary WM CD19+ cells; assay type: cell-based, human; conditions: 20 μM, 48 hours, vs scramble control
Description: as §4, §5

mCherry-Luc+-BCWM1 cells = assay: Xenograft mouse model of WM, bioluminescent imaging of tumor burden; assay type: in vivo, SCID mice
Description: as §2
To assess the anti-tumor activity of antimiR-155 in vivo, a xenograft mouse model of WM was used. Six SCID mice per group were engrafted with 3×10^6 mCherry-Luc^+-BCWM1 cells, after which mice were injected with a loading dose of 25 mg/kg antimiR-155 or scramble control, which was followed by weekly maintenance doses of 5 mg/kg of each respective compound until the mice were sacrificed. Tumor burden was monitored using bioluminescent imaging (BLI) at Days 0, 14, and 19 after injection (FIG. 7A).

miR-155 [11] = assay: Gene expression profiling and qRT-PCR of miR-155 target mRNAs in BCWM1 cells; assay type: cell-based, human; conditions: vs scramble control
Description: Total RNA from BCWM1 cells treated with antimiR-155 or LNA scramble control oligonucleotide, respectively, for 48 hours, were isolated using RNeasy kit (Qiagen) as described by the manufacturer, and hybridized on an Affymetrix U133A 2.0 array chip (Affymetrix, Santa Clara, Calif.). GEP data were analyzed using dChip software (biosunl.harvard.edu/complab/dchip/). Candidate target mRNAs for miR-155 were identified by using the algorithms TargetScan (genes.mit.edu/targetscan/), PicTar (pictar.bio.nyu.edu/) and RNAhybrid (bibiserv.techfak.uni-bielefeld.de/rnahybrid/).
as §4
To identify new direct miR-155 targets in B cell lymphomas, gene expression profiling (GEP) was performed on BCWM.1 cells after treatment with antimiR-155 or scramble control for 24 or 48 hours. […]

BCWM1 cells [12] = assay: Co-culture with stromal cells from wild-type or miR-155−/− mice, [H]3 thymidine uptake; assay type: cell-based, human; conditions: 20 μM, 48 hours, vs scramble control
Description: (§6) To further clarify whether antimiR-155 can affect both tumor cells and stromal cells, BCWM1 or MEC1 cells were treated with antimiR-155 or scramble control, followed by co-culturing of the treated cells with bone marrow stromal cells from wild-type mice in comparison with stromal cells from miR-155^−/− mice. Cell survival and cell proliferation were assessed by MTT assay and [H]^3 thymidine uptake assays, respectively, after 48-hour of co-culture.

MEC1 cells [13] = assay: as above; assay type: cell-based, human; conditions: 20 μM, 48 hours, vs scramble control
Description: as §6

CC(C)C[C@H](NC(=O)[C@H](Cc1ccccc1)NC(=O)c1cnccn1)B(O)O [bortezomib]
TNF-α-induced NF-κB recruitment to the nucleus, single agents (NF-κB p65): similarly inhibited

antimiR-155: fully LNA-modified 8-mer seed-targeting antimiR-155 (3′ATTACGAT 5′ (SEQ ID NO:9)) (fully LNA-modified, chemistry not fully specified; listed 3' to 5')
cell proliferation (BCWM1 cells [1]): significant reduction in cell proliferation
cell proliferation (MEC1 cells [2]): significant reduction in cell proliferation
CEBPβ protein level in bone marrow and spleen (immunostaining) (miR-155 [3]; mouse, in vivo): de-repression
MAFB protein level in bone marrow and spleen (immunostaining) (miR-155 [3]; mouse, in vivo): de-repression
mRNA levels of six miR-155 targets in bone marrow WM CD19+ cells (miR-155 [3]; vs scramble control): de-repressed
protective effect of bone marrow stromal cells on WM tumor cells (BCWM1 cells [4]): overcame the protective effect of bone marrow stromal cells
tumor cell proliferation in co-culture (BCWM1 cells [4]; primary WM bone marrow stromal cells): decreased tumor cell proliferation
tumor cell proliferation in co-culture (MEC1 cells [5]): decreased tumor cell proliferation
cell cytotoxicity (BCWM1 cells [6]): no change in cell cytotoxicity
cell cytotoxicity (MEC1 cells [7]): no change in cell cytotoxicity
cell cytotoxicity on stromal cells [8]: No effect
mRNA levels of the six miR-155 targets (miR-155 [9]): significant increase in the mRNA levels
mRNA levels of the six miR-155 targets (miR-155 [10]): significant increase in the mRNA levels
tumor burden (BLI) (mCherry-Luc+-BCWM1 cells; 25 mg/kg loading dose, weekly 5 mg/kg, Day 14 and Day 19, vs scramble control): significant reduction in tumor burden; also recorded: significantly decreased tumor burden
body weight (mCherry-Luc+-BCWM1 cells; antimiR-155 vs scramble control group): No difference in body weight
validated miR-155 target mRNAs (CEBPβ, SMAD5, SOCS1) (miR-155 [11]; 24 or 48 hours): up-regulated; also recorded: upregulated
new miR-155 targets MAFB, SHANK2, SH3PXD2A mRNA (miR-155 [11]; 48 hours): de-repressed; also recorded: upregulated
tumor cell proliferation, co-culture with miR-155−/− stromal cells (BCWM1 cells [12]): not significantly
tumor cell proliferation, co-culture with wild-type mice stroma (BCWM1 cells [12]): decreased tumor cell proliferation
tumor cell proliferation, co-culture with miR-155−/− stromal cells (MEC1 cells [13]): not significantly
tumor cell proliferation, co-culture with wild-type mice stroma (MEC1 cells [13]): decreased tumor cell proliferation
